Data set [1] deals with T1, acyl CoA:cholesterol acyltransferase (ACAT-EC 2.3.1.26) (Oryctolagus cuniculus, UniProt A0A5F9CPP4).
T1 construct: microsomal preparations from atherosclerotic rabbit thoracic aorta (intima media); from tissue; host or cells: microsomes from atherosclerotic rabbit thoracic aorta (intima media)
T1 sequence (A0A5F9CPP4 1-555): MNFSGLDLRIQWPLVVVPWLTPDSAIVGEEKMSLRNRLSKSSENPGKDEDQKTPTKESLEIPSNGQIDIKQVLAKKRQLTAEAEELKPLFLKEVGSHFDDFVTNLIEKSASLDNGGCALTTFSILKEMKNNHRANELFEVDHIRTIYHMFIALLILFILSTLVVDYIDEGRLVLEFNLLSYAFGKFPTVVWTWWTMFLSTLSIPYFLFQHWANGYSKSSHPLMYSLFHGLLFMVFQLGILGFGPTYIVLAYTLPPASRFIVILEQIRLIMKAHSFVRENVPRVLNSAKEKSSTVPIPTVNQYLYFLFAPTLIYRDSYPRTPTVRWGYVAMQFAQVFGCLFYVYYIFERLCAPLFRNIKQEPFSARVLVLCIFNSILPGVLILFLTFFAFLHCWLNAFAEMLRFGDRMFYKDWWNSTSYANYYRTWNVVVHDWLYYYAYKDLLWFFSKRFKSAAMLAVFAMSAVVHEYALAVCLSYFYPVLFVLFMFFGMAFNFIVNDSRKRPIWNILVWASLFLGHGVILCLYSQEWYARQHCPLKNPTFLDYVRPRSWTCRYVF
The data set is described as follows: ACAT inhibition in microsomes from atherosclerotic rabbit thoracic aorta (intima media). The class given is biochemical. The following applies: microsomes from atherosclerotic rabbit thoracic aortas; limits p = 0.95.

Data set [2] in a line: orientative acute toxicity (LD50), single oral administration, assessed on the seventh day, mice. The following applies: mouse, in vivo, nine hours food deprived. The method, then:
The toxicity of the compounds of the invention is negligible, therefore they can be safely used in therapy. Nine hours food deprived mice and rats were treated orally with single administration of increasing doses, then housed and normally fed. The orientative acute toxicity (LD50) was assessed on the seventh day after the treatment, for instance a LD50 greater than 800 mg/kg was found in mice for the compound coded as FCE 27116.

Data set [3] addresses T1, acyl CoA:cholesterol acyltransferase (ACAT-EC 2.3.1.26). As to conditions: Hudson H., Day A., Atherosclerosis (1982) 45, 109; cited from earlier work.

Structures are written as SMILES. A value given as a limit tells only on which side of the number the result lay.

As usually defined, the IC50 is the midpoint of a concentration-inhibition curve. For orientation: LD50 means the dose at which mortality reaches 50%. A high value points to lower toxicity.

In turn, `CCCC1Oc2ccc(OCCCC(C)(C)C(=O)OCC)cc2C=C1c1nccn1C` (racemic) [FCE 25184, ethyl (+-)-5-[2-propyl-3-(1-methyl-1H-imidazol-2-yl)-2H-benzopyran-6-yl]oxy-2,2-dimethylpentanoate, reference compound] registered a half-maximal inhibitory concentration (IC50) in data set [1] of 1060 nM.

In data set [1], `CC(C)c1cccc(C(C)C)c1NC(=O)C(C)(C)CCCOc1ccc2c(c1)C=C(c1nccn1C)C(CCc1ccccc1)O2` (racemic) [FCE 26734, (+-)-5-[2-(2-phenylethyl)-3-(1-methyl-1H-imidazol-2-yl)-2H-1-benzopyran-6-yl]oxy-2,2-dimethyl-N-(2,6-diisopropylphenyl)pentanamide] came in with an IC50 of 85.1 nM.

As to `CCOC(=O)C1(CCCOc2ccc3c(c2)C=C(c2nccn2C)C(CCc2ccccc2)O3)CCCC1` (racemic) [FCE 27051, ethyl (+-)-1-[3-(2-(2-phenylethyl)-3-(1-methyl-1H-imidazol-2-yl)-2H-1-benzopyran-6-yl)oxypropyl]cyclopentane-1-carboxylate], the IC50 in data set [1] worked out at 66.8 nM.

Consider `CC(C)c1cccc(C(C)C)c1NC(=O)C(C)(C)CCCOc1ccc2c(c1)C=C(c1nccn1C)C(CCc1ccc(F)cc1F)O2` (racemic) [FCE 27113, (+-)-5-[2-(2-(2,4-difluorophenyl)ethyl)-3-(1-methyl-1H-imidazol-2-yl)-2H-1-benzopyran-6-yl)oxy-2,2-dimethyl-N-(2,6-diisopropylphenyl)pentanamide], for which the half-inhibitory concentration (IC50) in data set [1] came out at 82.2 nM.

In the case of `Cn1ccnc1C1=Cc2cc(OCCCC(C)(C)C(=O)NC3CCCCC3)ccc2OC1CCc1ccc(F)cc1` (racemic) [FCE 27116, (+-)-5-[2-(2-(4-fluorophenyl)ethyl)-3-(1-methyl-1H-imidazol-2-yl)-2H-1-benzopyran-6-yl]oxy-2,2-dimethyl-N-cyclohexylpentanamide], in data set [1], the IC50 was determined as 39.9 nM. In data set [2], this molecule registered a median lethal dose (LD50) at 168 h greater than 800 mg/kg.

Turning to `CC(C)(Oc1ccc(CCNC(=O)c2ccc(Cl)cc2)cc1)C(=O)O` [Bezafibrate], the “inhibitory activity in vitro (rabbit arterial microsomes)” value in data set [3] is reported as “inhibitory activity in vitro (rabbit arterial microsomes) has been already demonstrated”.

The record behind these values is patent US5356920A, “Imidazol-2-yl derivatives of substituted bicyclic compounds” (priority 1990, dated 1994).
